Assay results from patent US8211899B2, “Artificial nucleic acid bases and their use in base pairing natural nucleic acid bases” (Inter-University Research Institute Corporation National …, priority 2005, dated 2012).
Read-outs that look alike come from different tables or passages of the source.

Columns and labels:
[1] = tested on: 1-methylthymine (T); test: test of base pair formation by UV absorbance change versus mixing ratio; format: binding; settings: mixture with T, total 7.5 mmol/L, mol ratio 0:10 to 10:0, anhydrous DMSO, 25° C., 12 hr
Procedure: The test of base pair formation was carried out in the following way. The concentration of the mixture of PPT and one of respective N-methylated natural nucleic acid bases (1-methylcytosine (herein after, referred to as “C”), 1-methylthymine (hereinafter, referred to as “T”). 9-methyladenine (hereinafter, referred to as “A”), and 9-methylguanine (hereinafter, referred to as “G”)) was kept constant at 7.5 mmol/L and the ratio (mol ratio) of the mixture was varied from 0:10 to 10:0. The mixture was dissolved at 25° C. in anhydrous dimethyl sulfoxide (DMSO), which had been removed oxygen by freezing-degas method, dissolved argon gas, mixed with DMSO solution of substrates prepared before hand, and allowed to leave for overnight (12 hr.). Then, the change of absorbance in ultraviolet wavelength region was measured according to the following conditions: • (1) The measuring equipment, JASCO V-550 SERIAL NO. C02951260; • (2) The thermal controller, JASCO PSC-498T; • (3) The cell, GL Science Type: AB20-SQ-0.1 (Optical path is 0.1 mm); • (4) The cell adopter, CAS-10-1; • (5) The measured wavelength region, 200-350 nm.
The absorbance of substrates is proportional to a mixing ratio of the substrates (Beer's law) in the case of no interaction between substrates.
For comparison, the base pair formation was examined for A and T, and G and T similarly to Example 3.

[2] = solubility test in solvents at 1 to 100 mM; format: physicochemical; settings: for solubility: warmed to 50° C. and cooled to 27° C.; for solubility in water and organic solvents: water and various organic solvents
Procedure: The solubility of PPT obtained in Example 1 was examined. For comparison, the solubility of a PPT derivative, wherein R is H in chemical formula I (hereinafter, referred to as “PPT(H)”). For the solubility test, each solvent listed in Table I was used, and the concentration of solute was 1 to 100 mM. The solution with respective concentrations was warmed once to 50° C. and cooled to 27° C. The solution with residues was referred to as “insoluble”, in the contrast the solution without residues was referred to as “soluble”. The concentration of the buffer was 100 mM and the pH was 7.0.

[3] = tested on: 1-methylcytosine (C); test: test of base pair formation by UV absorbance change versus mixing ratio; format: binding; settings: mixture with C, total 7.5 mmol/L, mol ratio 0:10 to 10:0, anhydrous DMSO, 25° C., 12 hr
Procedure: (§1) The test of base pair formation was carried out in the following way. […] The mixture was dissolved at 25° C. in anhydrous dimethyl sulfoxide (DMSO), which had been removed oxygen by freezing-degas method, dissolved argon gas, mixed with DMSO solution of substrates prepared before hand, and allowed to leave for overnight (12 hr.). Then, the change of absorbance in ultraviolet wavelength region was measured according to the following conditions: • (1) The measuring equipment, JASCO […]IAL NO. C02951260; • (2) The thermal controller, JASCO PSC-498T; • (3) The cell, GL Science Type: AB20-SQ-0.1 (Optical path is 0.1 mm); • (4) The cell adopter, CAS-10-1; • (5) The measured wavelength region, 200-350 nm. The absorbance changed in accordance with the mixing ratios. Plot of the absorbance change versus to mixing ratios at a wavelength, where the absorbance change was observed, are shown in FIG. 2. The absorbance of substrates is proportional to a mixing ratio of the substrates (Beer's law) in the case of no interaction between substrates.

[4] = tested on: 9-methyladenine (A); test: as above; format: binding; settings: mixture with A, total 7.5 mmol/L, mol ratio 0:10 to 10:0, anhydrous DMSO, 25° C., 12 hr
Procedure: as §1

[5] = tested on: 9-methylguanine (G); test: as above; format: binding; settings: mixture with G, total 7.5 mmol/L, mol ratio 0:10 to 10:0, anhydrous DMSO, 25° C., 12 hr
Procedure: as §1

[6] = TBE buffer 100 mM pH 7.0, concentration 1 mM
[7] = TBE buffer 100 mM pH 7.0, concentration 100 mM
[8] = phosphate buffer 100 mM pH 7.0, concentration 1 mM
[9] = phosphate buffer 100 mM pH 7.0, concentration 100 mM
[10] = DMF, 27 °C, organic solvent or mixture, thermodynamic from solid, DMF, concentration 1 mM, read-out: solubility
[11] = DMF, 27 °C, organic solvent or mixture, thermodynamic from solid, DMF, concentration 100 mM, read-out: solubility
[12] = DMSO, 27 °C, organic solvent or mixture, thermodynamic from solid, DMSO, concentration 1 mM, read-out: solubility
[13] = DMSO, 27 °C, organic solvent or mixture, thermodynamic from solid, DMSO, concentration 100 mM, read-out: solubility
[14] = TBE buffer, 27 °C, pH 7, aqueous buffer, thermodynamic from solid, TBE buffer 100 mM pH 7.0, concentration 1 mM, read-out: solubility
[15] = TBE buffer, 27 °C, pH 7, aqueous buffer, thermodynamic from solid, TBE buffer 100 mM pH 7.0, concentration 100 mM, read-out: solubility
[16] = methanol, 27 °C, organic solvent or mixture, thermodynamic from solid, methanol, concentration 1 mM, read-out: solubility
[17] = methanol, 27 °C, organic solvent or mixture, thermodynamic from solid, methanol, concentration 100 mM, read-out: solubility
[18] = phosphate buffer, 27 °C, pH 7, aqueous buffer, thermodynamic from solid, phosphate buffer 100 mM pH 7.0, concentration 1 mM, read-out: solubility
[19] = phosphate buffer, 27 °C, pH 7, aqueous buffer, thermodynamic from solid, phosphate buffer 100 mM pH 7.0, concentration 100 mM, read-out: solubility
[20] = water, 27 °C, water, thermodynamic from solid, water, concentration 1 mM, read-out: solubility
[21] = water, 27 °C, water, thermodynamic from solid, water, concentration 100 mM, read-out: solubility

Row | solubility ([2]; DMF, concentration 1 mM) | solubility ([2]; DMF, concentration 100 mM) | solubility ([2]; DMSO, concentration 1 mM) | solubility ([2]; DMSO, concentration 100 mM) | solubility [2, 6] | solubility [2, 7] | solubility ([2]; methanol, concentration 1 mM) | solubility ([2]; methanol, concentration 100 mM) | solubility [2, 8] | solubility [2, 9] | solubility ([2]; water, concentration 1 mM) | solubility ([2]; water, concentration 100 mM) | Structure (SMILES) | base pair formation: deviation of absorbance plot from the linear line by Beer's law [1] | other results
1 | S (S: soluble) | Ins (Ins: insoluble) | S (S: soluble) | Ins (Ins: insoluble) | S (S: soluble) | Ins (Ins: insoluble) | S (S: soluble) | Ins (Ins: insoluble) | S (S: soluble) | Ins (Ins: insoluble) | S (S: soluble) | Ins (Ins: insoluble) | O=c1[nH]c(=O)c2c(=O)[nH]c(=O)n(CCO)c2[nH]1 [CH2CH2OH] | – | –
2 | S (S: soluble) | S (S: soluble) | S (S: soluble) | S (S: soluble) | S (S: soluble) | Ins (Ins: insoluble) | S (S: soluble) | Ins (Ins: insoluble) | S (S: soluble) | Ins (Ins: insoluble) | S (S: soluble) | Ins (Ins: insoluble) | C=CCn1c(=O)[nH]c(=O)c2c(=O)[nH]c(=O)[nH]c21 [CH2CH═CH2] | – | –
3 | S (S: soluble) | Ins (Ins: insoluble) | S (S: soluble) | Ins (Ins: insoluble) | S (S: soluble) | S (S: soluble) | S (S: soluble) | Ins (Ins: insoluble) | S (S: soluble) | S (S: soluble) | S (S: soluble) | S (S: soluble) | O=C(O)Cn1c(=O)[nH]c(=O)c2c(=O)[nH]c(=O)[nH]c21 [CH2COOH] | – | –

Continued, compound first:

Row | Structure (SMILES) | solubility ([2]; DMF, concentration 1 mM) | solubility ([2]; DMF, concentration 100 mM) | solubility ([2]; DMSO, concentration 1 mM) | solubility ([2]; DMSO, concentration 100 mM) | solubility [2, 6] | solubility [2, 7] | solubility ([2]; methanol, concentration 1 mM) | solubility ([2]; methanol, concentration 100 mM) | solubility [2, 8] | solubility [2, 9] | solubility ([2]; water, concentration 1 mM) | solubility ([2]; water, concentration 100 mM) | base pair formation: deviation of absorbance plot from the linear line by Beer's law [1] | other results
4 | Cn1cnc2c(N)ncnc21 [A, 9-methyladenine] | – | – | – | – | – | – | – | – | – | – | – | – | deviation from the linear line | –
5 | Cn1cnc2c(=O)[nH]c(N)nc21 [G, 9-methylguanine] | – | – | – | – | – | – | – | – | – | – | – | – | no deviation from the linear line | –
6 | O=c1[nH]c(=O)c2c(=O)[nH]c(=O)[nH]c2[nH]1 [PPT(H), pyrimido [4,5-d]pyrimidine-2,4,5,7-tetraone, reference compound] | – | – | – | – | – | – | – | – | – | – | – | – | – | solubility [2, 10]: < 100 mM; solubility [2, 11]: < 100 mM; solubility [2, 12]: < 100 mM; solubility [2, 13]: < 100 mM; solubility [2, 14]: < 100 mM; solubility [2, 15]: < 100 mM; solubility [2, 16]: < 100 mM; solubility [2, 17]: < 100 mM; solubility [2, 18]: < 100 mM; solubility [2, 19]: < 100 mM; solubility in water and organic solvents [2]: insoluble; solubility in water and organic solvents ([2]; listed as unsubstituted form of pyrimido [4,5-d] pyrimidine -2,4,5,7-tetraone): extremely low; solubility [2, 20]: < 100 mM; solubility [2, 21]: < 100 mM
7 | CC(C)(C)[Si](OCCn1c(=O)[nH]c(=O)c2c(=O)[nH]c(=O)[nH]c21)(c1ccccc1)c1ccccc1 [PPT, 1-[2-(t-butyl-diphenyl-silyloxy)-ethyl]-1H, 8H-pyrimido [4,5-d]pyrimidine-2,4,5,7-tetraone] | – | – | – | – | – | – | – | – | – | – | – | – | large deviation from the linear line | solubility [2, 10]: > 1 mM; solubility [2, 11]: > 1 mM; solubility [2, 12]: > 1 mM; solubility [2, 13]: > 1 mM; solubility [2, 14]: > 1 mM; solubility [2, 15]: < 100 mM; solubility [2, 16]: > 1 mM; solubility [2, 17]: < 100 mM; solubility [2, 18]: > 1 mM; solubility [2, 19]: < 100 mM; solubility [2, 20]: > 1 mM; solubility [2, 21]: < 100 mM; base pair formation: deviation of absorbance plot from the linear line by Beer's law [3]: large deviation from the linear line; base pair formation: deviation of absorbance plot from the linear line by Beer's law [4]: large deviation from the linear line; base pair formation: deviation of absorbance plot from the linear line by Beer's law [5]: large deviation from the linear line
